Data: US20060141546A1, “Bacterial test method by glycated label binding” (priority 2002, published 2006)

B1: placenta ALP: Alkaline phosphatase from placenta (protein, UniProt P05187 23-506, looked up)
Alkaline phosphatase, …: IIPVEEENPDFWNREAAEALGAAKKLQPAQTAAKNLIIFLGDGMGVSTVTAARILKGQKKDKLGPEIPLAMDRFPYVALSKTYNVDKHVPDSGATATAYLCGVKGNFQTIGLSAAARFNQCNTTRGNEVISVMNRAKKAGKSVGVVTTTRVQHASPAGTYAHTVNRNWYSDADVPASARQEGCQDIATQLISNMDIDVILGGGRKYMFRMGTPDPEYPDDYSQGGTRLDGKNLVQEWLAKRQGARYVWNRTELMQASLDPSVTHLMGLFEPGDMKYEIHRDSTLDPSLMEMTEAALRLLSRNPRGFFLFVEGGRIDHGHHESRAYRALTETIMFDDAIERAGQLTSEEDTLSLVTADHSHVFSFGGYPLRGSSIFGLAPGKARDRKAYTVLLYGNGPGYVLKDGARPDVTESESGSPEYRQQSAVPLDEETHAGEDVAVFARGPQAHLVHGVQEQTFIAHVMAFAACLEPYTACDLAPPAGTTD

How the values were obtained:
E. coli = test: ALP binding to bacteria in presence of carbohydrates, polysaccharides, glycopeptides and lectins (Example 5, Table 3); conditions: ALP 100 mUnits plus 15 μg of additive
Description: (§1) Bacterial cells (1 to 4.5×10^7 cells/mL) were washed twice with water after centrifugation to separate cells into a packed pellet from the supernatant liquid. The washed cells in pellet form were suspended in 20 μl of EPPS buffer (50 mM at pH 8.0) and 30 μL of water. Hemoglobin (20 μg) was added as a blocking additive. Alkaline phosphatase (ALP) (100 mUnits) from bovine intestine and 15 μg of simple carbohydrates or proteoglycan or lectins, were added.
(§2) The mixture of glycated protein and bacterial cells was left at 25° C. for 15 minutes. The mixture was then centrifuged at 30,000 rpm for 30 minutes after which the bacterial cells formed a pellet at the bottom of the tube and were washed with water 4-5 times (50 μL). Centrifugation allows separation of glycoprotein bound to the bacteria cells from unbound glycated protein(s).
(§3) After washing, the bacterial pellets were suspended in 50 μL of sodium tetraborate buffer (25 mM at pH 9.5). A 5 uL aliquot of the suspension was assayed for detection of ALP binding by adding 5 μL of para-nitrophenol phosphate (PNPP, 100 mM), 50 μL sodium borate buffer (25 mM at pH 9.0) and 140 μL of water. […] The color is read at 405 nm using a ELISA plate reader between 15-30 min and the absorbance is directly proportional to the amount of ALP bound to the bacteria cell adhesions for glycated groups.

S. faec. = test: as above; conditions: ALP 100 mUnits plus 15 μg of additive
Description: as §1, §2, §3

bacteria [1] = test: ALP binding to bacteria in presence of carbohydrates, polysaccharides, glycopeptides and lectins (Example 5); conditions: 15 μg additive with ALP
Description: as §1, §2, §3

bacteria [2] = test: Effect of divalent cations on ALP binding to bacteria (Example 7, Table 5, FIG. 12)
Description: (§4) Bacterial cells (1 to 4.5×10^7 cells/mL) were washed twice with water after centrifugation to separate cells into a packed pellet from the supernatant liquid. The washed cells in pellet form were suspended in 20 μL of EPPS buffer (50 mM at pH 8.0) and 30 μL of water. […]
as §2
(§5) After washing, the bacterial pellets were suspended in 50 μL of borate buffer (25 mM at pH 9.0). A 5 μL aliquot of the suspension was assayed for detection of ALP binding by adding 5 μL of para-nitrophenol phosphate (PNPP, 100 mM), 50 μL sodium borate buffer (25 mM at pH 9.0) and 140 μL of water. […] The color was read at 405 nm using an ELISA plate reader between 15-30 min; the absorbance is directly proportional to the amount of ALP bound to the bacteria cell.

S. faecalis strain = test: Zinc concentration dependent ALP binding (Example 7, FIG. 11); conditions: increasing concentration of zinc
Description: Bacterial cells (1 to 4.5×10^7 cells/mL) were washed twice with water after centrifugation to separate cells into a packed pellet from the supernatant liquid. The washed cells in pellet form were suspended in 20 μL of EPPS buffer (50 mM at pH 8.0) and 30 μL of water. Bovine intestinal alkaline phosphatase (ALP) (2 μg or […]) was added and 0.2 mM of several cations.
as §2
After washing, the bacterial pellets were suspended in 50 μL of borate buffer (25 mM at pH 9.0). […] The color was read at 405 nm using an ELISA plate reader between 15-30 min; the absorbance is directly proportional to the amount of ALP bound to the bacteria cell.
Concentration dependent binding study has been performed in the presence of increasing concentration of zinc with S. faecalis strain as shown in FIG. 11. […] The studies have been continued with different strains of bacteria in the presence of 1 mM Zn^2+ and the ALP binding could be monitored even at 10^5 bacteria concentration (FIG. 12).

[3] = test system: bacteria (Sf—Staph. faec.; Ec: E. coli); test: Effect of various cations on ALP binding to bacteria (Example 8, FIGS. 13-14); conditions: cations 2 mM, bovine intestinal mucosa ALP, FIG. 13
Description: as §4
as §2, with “was” for “were”
as §5

[4] = test system: bacteria (both Staph and E. coli); test: Cation effect on ALP binding, bound ALP assayed in glycine buffer pH 10.0 (Example 9, FIGS. 17-18); conditions: binding at pH 8.0 in EPPS buffer, assay in glycine buffer pH 10.0, FIGS. 17-18
Description: The binding was conducted at pH 8.0 in EPPS buffer.

bacteria [5] = test: Bacteria assay by binding of ALP iso-forms (Example 4, FIG. 10); conditions: for binding of ALP iso-forms to bacteria: 100 mUnits ALP, hemoglobin blocking
Description: as §1, with “μL” for “μl”, “intestine, placenta,” for “bovine intestine”, “bacteria sources” for “15 μg of simple carbohydrates or proteoglycan or lectins,”
as §2
as §3, with “in 50 μl of sodium” for “in 50 μL of sodium”, “A 5 μL aliquot of” for “A 5 uL aliquot of”, “nm using an ELISA plate” for “nm using a ELISA plate”, “to the bacteria-cell adhesions for” for “to the bacteria cell adhesions for”, “glycated groups. The results are illustrated in FIG. 10.” for “glycated groups.”

[6] = ALP activity of different sources in glycine buffer (Example 9, FIGS. 15-16); type: biochemical; conditions: assayed in glycine buffer

Molecule	absorbance (405 nm) of ALP bound to bacteria (E. coli)	absorbance (405 nm) of ALP bound to bacteria (S. faec.)	effect on bacteria binding of ALP (in words) (bacteria [1])	binding of ALP iso-forms to bacteria (bacteria [5])	other results
OC[C@H]1O[C@@H](O)[C@H](O)[C@@H](O)[C@@H]1O [Glucose, β-D-Glucose]	1.8	2.4	did not produce any effect		
[Cl-].[Cl-].[Zn+2] [ZnCl2]					effect of cation on binding of ALP to the bacteria (in words) (bacteria [2]; 0.2 mM): significantly higher binding of ALP; O.D. at 405 nm, With ALP (bacteria [2]; bacteria plus cation (CaCl2 1 mM, MgCl2 1 mM, ZnCl2 0.2 mM) with ALP): 0.53 O.D.; O.D. at 405 nm, No ALP (bacteria [2]; bacteria plus cation (CaCl2 1 mM, MgCl2 1 mM, ZnCl2 0.2 mM), no ALP): 0.23 O.D.; zinc concentration at which optimum binding occurs (S. faecalis strain): 1 mM; effect of various cations on ALP-binding (in words) [3]: stimulate ALP-binding; cation effectiveness for binding of ALP to the bacteria [4]: best metal
Lipopolysaccharide	1.8	2.0	without any effect		
Lipoteichoic acid	0.2	0.2	strongly inhibits		
bacterial ALP: Alkaline phosphatase from bacteria sources; lacks glycophospholipid				binds bacteria	
B1				lowest binding to bacteria	enzyme activity of ALP iso-forms (bacteria [5]; PNPP): lowest enzyme activity; ALP activity compared with other sources [6]: comparable to ALP from other sources
